This note sets out measurements from ChEMBL document CHEMBL5634117 (Eur J Med Chem, 2023).

Calls of active or inactive are those of the source. The rule behind the calls is not given here.

The nature of data set [1]: Cytotoxicity against African green monkey Vero cells assessed as decrease in number of viable cells at 100 uM measured after 48 hrs by SRB assay relative to control. It counts as toxicity, cell-based. Particulars: chlorocebus sabaeus. On the technique in general: The SRB assay estimates cell density from bound dye.
The test system of data set [2] is K562. The data set can be described thus: Induction of cell cycle arrest in human K562 cells assessed as accumulation of cells at G0/G1 phase at 1.28 uM measured after 24 hrs by PI staining based flow cytometry analysis (reference value: 46.72%). It counts as functional. (In flow cytometry, cells or beads pass a laser one at a time.)
Data set [3] has as its system K562. As to the kind of experiment: Induction of apoptosis in human K562 cells assessed as early apoptotic cells at 0.64 uM incubated for 24 hrs by annexinV and propidium iodide staining based flow cytometry analysis (reference value: 1.17%). Type of data set: functional.
The subject of data set [4] is K562. The data set can be described thus: Induction of apoptosis in human K562 cells assessed as late apoptotic cells at 1.28 uM incubated for 24 hrs by annexinV and propidium iodide staining based flow cytometry analysis (reference value: 0.82%). Type of data set: functional.
In data set [5] the test system is K562. As to the kind of experiment: Induction of cell cycle arrest in human K562 cells assessed as accumulation of cells at S phase at 2.56 uM measured after 24 hrs by PI staining based flow cytometry analysis (reference value: 21.74%). It counts as functional.
In data set [6] the test system is K562. As to the kind of experiment: Induction of apoptosis in human K562 cells assessed as early apoptotic cells at 2.56 uM incubated for 24 hrs by annexinV and propidium iodide staining based flow cytometry analysis (reference value: 0.42%). Type of data set: functional.
Data set [7] relates to K562. The data set can be described thus: Induction of apoptosis in human K562 cells assessed as late apoptotic cells at 5 uM incubated for 24 hrs by annexinV and propidium iodide staining based flow cytometry analysis (reference value: 1.342%). Type of data set: functional.
Data set [8] has as its system K562. As to the kind of experiment: Induction of autophagy in human K562 cells assessed as increase in beclin-1 level at 1.28 to 2.56 uM measured after 24 hrs by Western blotting analysis. Type of data set: functional, cell-based. Particulars: dose 1.28-2.56 µM.
The test system of data set [9] is K562. The data set can be described thus: Induction of autophagy in human K562 cells assessed as increase in beclin-1 level at 2.5 to 5 uM measured after 24 hrs by Western blotting analysis. It counts as functional, cell-based. Particulars: dose 2.5-5 µM. A general note: A western blot detects proteins with antibodies after separation by electrophoresis.

In the case of `CC(C)(C)n1cc(-c2ccnc(NCCCNS(=O)(=O)c3ccc(Cl)cc3)c2)c(-c2cccc(O)c2)n1`, the Activity in [1] is 27%; in [2] it was 7.27%; in data set [3], 1.07%; in data set [4] it was 0.56%.

As for `O=C1c2ccccc2-c2n[nH]c3cccc1c23`, the Activity in data set [5] amounted to 21.55%; in [6], 1.05%; in data set [7], 4.12%. Further, the outcome in data set [8] and in data set [9] was Active.
